# Source: US20170050957A1, “4-AMINO-6-(HETEROCYCLIC)PICOLINATES AND 6-AMINO-2-(HETEROCYCLIC)PYRIMIDINE-4-CARBOXYLATES AND THEIR USE AS HERBICIDES” (Dow AgroSciences LLC, priority 2013, published 2017)
# Like-named read-outs stand apart in the source and are kept apart here.
# How the values were obtained:
# [1] = test system: Key Broadleaf Weed and Crop Species; test: Post-emergent Test II herbicidal activity (Table 15); assay type: in vivo; settings: post-emergence, 336 h, 14 d; for pest or weed control at 35 g/ha: 35 g ai/ha; for pest or weed control at 70 g/ha: 70 g ai/ha; for pest or weed control at 140 g/ha: 140 g ai/ha
# How it was run: (§1)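 Visual injury rating (0 = none, 100 = complete kill) taken 14 d after treatment, relative to untreated plants. Compounds in acetone/DMSO with crop oil concentrate and Triton X-155 were track-sprayed at 187 L/ha onto seedlings at the first-second true leaf stage.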
# [2] = test system: Key Grass and Sedge Weeds as well as Grass Crops; test: Post-emergent Test II herbicidal activity (Table 16); assay type: in vivo; settings: post-emergence, 336 h, 14 days after application; for pest or weed control at 35 g/ha: 35 g ai/ha; for pest or weed control at 70 g/ha: 70 g ai/ha; for pest or weed control at 140 g/ha: 140 g ai/ha
# How it was run: as §1
# [3] = Abutilon theophrasti, velvetleaf (Abutilon theophrasti), read-out: Visual Growth Reduction (%) 14 Days After Application, ABUTH
# [4] = Amaranthus retroflexus, redroot pigweed (Amaranthus retroflexus), read-out: Visual Growth Reduction (%) 14 Days After Application, AMARE
# [5] = Brassica napus, oilseed rape, canola (Brassica napus), read-out: Visual Growth Reduction (%) 14 Days After Application, BRSNN
# [6] = Chenopodium album, lambsquarters (Chenopodium album), read-out: Visual Growth Reduction (%) 14 Days After Application, CHEAL
# [7] = Euphorbia heterophylla, wild poinsettia (Euphorbia heterophylla), read-out: Visual Growth Reduction (%) 14 Days After Application, EPHHL
# [8] = Helianthus annuus, sunflower (Helianthus annuus), read-out: Visual Growth Reduction (%) 14 Days After Application, HELAN
# [9] = Cyperus esculentus, yellow nutsedge (Cyperus esculentus), read-out: Visual Growth Reduction (%) 14 Days After Application CYPES
# [10] = Echinochloa crus-galli, barnyardgrass (Echinochloa crus-galli), read-out: Visual Growth Reduction (%) 14 Days After Application ECHCG
# [11] = Oryza sativa, rice (Oryza sativa), read-out: Visual Growth Reduction (%) 14 Days After Application ORYSA
# [12] = Setaria faberi, giant foxtail (Setaria faberi), read-out: Visual Growth Reduction (%) 14 Days After Application SETFA
# [13] = Triticum aestivum, wheat, spring (Triticum aestivum), read-out: Visual Growth Reduction (%) 14 Days After Application TRZAS
# [14] = Zea mays, maize, corn (Zea mays), read-out: Visual Growth Reduction (%) 14 Days After Application ZEAMX
structure (smiles),measurement,setting,value
COC(=O)c1nc(-c2ccc3ccsc3c2)cc(N)c1Cl [Compound 3.15],pest or weed control at 35 g/ha,[1]; [3],85 to 94%
same,pest or weed control at 70 g/ha,[1]; [3],95 to 100%
same,pest or weed control at 140 g/ha,[1]; [3],95 to 100%
same,pest or weed control at 35 g/ha,[1]; [4],95 to 100%
same,pest or weed control at 70 g/ha,[1]; [4],95 to 100%
same,pest or weed control at 140 g/ha,[1]; [4],95 to 100%
same,pest or weed control at 35 g/ha,[1]; [5],30 to 44%
same,pest or weed control at 70 g/ha,[1]; [5],45 to 59%
same,pest or weed control at 140 g/ha,[1]; [5],45 to 59%
same,pest or weed control at 35 g/ha,[1]; [6],85 to 94%
same,pest or weed control at 70 g/ha,[1]; [6],85 to 94%
same,pest or weed control at 140 g/ha,[1]; [6],95 to 100%
same,pest or weed control at 35 g/ha,[1]; [7],75 to 84%
same,pest or weed control at 70 g/ha,[1]; [7],75 to 84%
same,pest or weed control at 140 g/ha,[1]; [7],85 to 94%
same,pest or weed control at 35 g/ha,[1]; [8],60 to 74%
same,pest or weed control at 70 g/ha,[1]; [8],60 to 74%
same,pest or weed control at 140 g/ha,[1]; [8],85 to 94%
same,pest or weed control at 35 g/ha,[2]; [9],0 to 29%
same,pest or weed control at 70 g/ha,[2]; [9],0 to 29%
same,pest or weed control at 140 g/ha,[2]; [9],0 to 29%
same,pest or weed control at 35 g/ha,[2]; [10],75 to 84%
same,pest or weed control at 70 g/ha,[2]; [10],75 to 84%
same,pest or weed control at 140 g/ha,[2]; [10],95 to 100%
same,pest or weed control at 35 g/ha,[2]; [11],0 to 29%
same,pest or weed control at 70 g/ha,[2]; [11],0 to 29%
same,pest or weed control at 140 g/ha,[2]; [11],0 to 29%
same,pest or weed control at 35 g/ha,[2]; [12],0 to 29%
same,pest or weed control at 70 g/ha,[2]; [12],0 to 29%
same,pest or weed control at 140 g/ha,[2]; [12],0 to 29%
same,pest or weed control at 35 g/ha,[2]; [13],0 to 29%
same,pest or weed control at 70 g/ha,[2]; [13],0 to 29%
same,pest or weed control at 140 g/ha,[2]; [13],0 to 29%
same,pest or weed control at 35 g/ha,[2]; [14],60 to 74%
same,pest or weed control at 70 g/ha,[2]; [14],60 to 74%
same,pest or weed control at 140 g/ha,[2]; [14],60 to 74%
